Measurements: patent US20250059198A1, “BRM DEGRADING COMPOUNDS AND ASSOCIATED METHODS OF USE” (Arvinas Operations, Inc., priority 2021, published 2025)

Biological target: T1, BRM (Homo sapiens, UniProt P51531)
T1 construct: Western Blot Screen of BRM Degradation in SW1573 Cells; endogenous in cells; host or cells: SW1573 cells
Test: BRM degradation (Dmax and DC50) in SW1573 cells, Western blot screen / In-Cell Western screen
Assay type: cell-based
Conditions: overnight (18-20 hours) treatment; for Dmax: read-out: Dmax (%)** (% degraded)
Method in brief: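 SW1573 cells were treated with compound for 18–20 h (final 0.1% DMSO). BRM was quantified either by Western blot of RIPA lysates or by fixed-cell In-Cell Western (LI-COR, 800/680 nm), each normalised to alpha-tubulin, giving Dmax and DC50.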

T1 sequence (P51531 whole entry): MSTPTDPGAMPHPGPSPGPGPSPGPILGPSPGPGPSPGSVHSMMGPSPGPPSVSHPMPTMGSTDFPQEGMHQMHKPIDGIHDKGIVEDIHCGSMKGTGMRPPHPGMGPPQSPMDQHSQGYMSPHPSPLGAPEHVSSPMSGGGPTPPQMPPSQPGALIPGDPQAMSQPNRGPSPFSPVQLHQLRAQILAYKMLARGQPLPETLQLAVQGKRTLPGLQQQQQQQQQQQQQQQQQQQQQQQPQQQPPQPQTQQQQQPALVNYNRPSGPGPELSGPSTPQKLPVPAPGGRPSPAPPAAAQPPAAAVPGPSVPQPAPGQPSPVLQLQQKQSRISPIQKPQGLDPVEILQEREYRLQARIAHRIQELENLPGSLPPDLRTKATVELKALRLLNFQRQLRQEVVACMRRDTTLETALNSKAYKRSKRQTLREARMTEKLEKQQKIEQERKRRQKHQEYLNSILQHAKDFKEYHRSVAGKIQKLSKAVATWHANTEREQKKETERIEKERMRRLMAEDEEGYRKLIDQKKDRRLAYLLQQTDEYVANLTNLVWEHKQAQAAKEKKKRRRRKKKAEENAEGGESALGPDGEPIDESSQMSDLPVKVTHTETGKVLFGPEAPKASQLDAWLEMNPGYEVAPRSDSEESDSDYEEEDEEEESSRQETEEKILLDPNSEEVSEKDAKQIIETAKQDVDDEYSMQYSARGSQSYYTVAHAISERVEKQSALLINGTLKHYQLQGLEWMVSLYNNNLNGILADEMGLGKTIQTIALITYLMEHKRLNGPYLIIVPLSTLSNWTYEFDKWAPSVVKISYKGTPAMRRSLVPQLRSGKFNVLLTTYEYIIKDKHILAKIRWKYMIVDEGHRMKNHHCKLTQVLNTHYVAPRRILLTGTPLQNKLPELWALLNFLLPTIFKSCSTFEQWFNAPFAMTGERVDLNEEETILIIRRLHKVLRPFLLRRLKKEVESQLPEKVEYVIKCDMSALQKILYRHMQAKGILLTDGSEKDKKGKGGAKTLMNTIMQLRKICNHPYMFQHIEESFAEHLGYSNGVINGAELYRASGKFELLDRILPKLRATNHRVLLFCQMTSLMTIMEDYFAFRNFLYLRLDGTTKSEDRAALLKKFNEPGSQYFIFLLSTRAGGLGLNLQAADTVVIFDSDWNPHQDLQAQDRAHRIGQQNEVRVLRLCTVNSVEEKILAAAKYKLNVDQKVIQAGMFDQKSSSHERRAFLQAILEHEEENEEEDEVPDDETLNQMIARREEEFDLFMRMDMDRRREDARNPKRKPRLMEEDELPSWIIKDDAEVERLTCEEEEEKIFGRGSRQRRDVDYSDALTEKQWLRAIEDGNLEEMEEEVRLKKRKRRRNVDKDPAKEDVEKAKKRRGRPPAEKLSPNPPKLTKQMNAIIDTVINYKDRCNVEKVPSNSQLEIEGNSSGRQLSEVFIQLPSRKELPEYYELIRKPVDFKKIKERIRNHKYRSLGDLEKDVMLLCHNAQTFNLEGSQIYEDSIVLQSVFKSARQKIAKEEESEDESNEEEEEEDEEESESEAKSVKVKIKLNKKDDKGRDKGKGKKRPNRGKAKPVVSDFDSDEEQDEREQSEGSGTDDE

**Q.** How did the DC50 turn out when `Cc1ncsc1-c1ccc([C@H](CC(=O)N2CCC(CN3CCC(O[C@H]4C[C@H](Oc5cc(N6C7CCC6CN(c6cc(-c8ccccc8O)nnc6N)C7)ccn5)C4)CC3)CC2)NC(=O)[C@@H]2C[C@@H](O)CN2C(=O)[C@@H](C(C)C)N2Cc3ccccc3C2=O)cc1` [Compound 37, (2S,4R)-4-hydroxy-N-[(1S)-1-[4-(4-methyl-1,3-thiazol-5-yl)phenyl]-3-oxo-3-[4-({4-[(1r,3r)-3-[(4-{3-[3-amino-6-(2-hydroxyphenyl)pyridazin-4-yl]-3,8-diazabicyclo[3.2.1]octan-8-yl}pyridin-2-yl)oxy]cyclobutoxy]piperidin-1-yl}methyl)piperidin-1-yl]propyl]-1-[(2R)-3-methyl-2-(1-oxo-2,3-dihydro-1H-isoindol-2-yl)butanoyl]pyrrolidine-2-carboxamide] was run?
**A.** Its DC50 is ≥ 30 nM.

**Q.** For `Cc1ncsc1-c1ccc([C@H](C)NC(=O)[C@@H]2C[C@@H](O)CN2C(=O)[C@H](c2cc(OCCOC(=O)N3CCC(O[C@H]4C[C@H](Oc5cc(N6C7CCC6CN(c6cc(-c8ccccc8O)nnc6N)C7)ccn5)C4)CC3)no2)C(C)C)cc1` [Compound 134, 2-({5-[(2S)-1-[(2S,4R)-4-hydroxy-2-{[(1S)-1-[4-(4-methyl-1,3-thiazol-5-yl)phenyl]ethyl]carbamoyl}pyrrolidin-1-yl]-3-methyl-1-oxobutan-2-yl]-1,2-oxazol-3-yl}oxy)ethyl 4-[(1r,3r)-3-[(4-{3-[3-amino-6-(2-hydroxyphenyl)pyridazin-4-yl]-3,8-diazabicyclo[3.2.1]octan-8-yl}pyridin-2-yl)oxy]cyclobutoxy]piperidine-1-carboxylate], which DC50 is on record?
**A.** Its DC50 is ≥ 30 nM.

**Q.** With `Cc1ncsc1-c1ccc([C@H](C)NC(=O)[C@H]2C[C@@H](O)CN2C(=O)[C@@H](c2cc(N3CCC(CN4CCC(O[C@H]5C[C@H](OC(=O)N6CCN(c7cc(-c8ccccc8O)nnc7N)CC6)C5)CC4)CC3)no2)C(C)C)cc1` [Compound 45, (1rs,3rs)-3-({1-[(1-{5-[(2R)-1-[(2S,4R)-4-hydroxy-2-{[(1S)-1-[4-(4-methyl-1,3-thiazol-5-yl)phenyl]ethyl]carbamoyl}pyrrolidin-1-yl]-3-methyl-1-oxobutan-2-yl]-1,2-oxazol-3-yl}piperidin-4-yl)methyl]piperidin-4-yl}oxy)cyclobutyl 4-[3-amino-6-(2-hydroxyphenyl)pyridazin-4-yl]piperazine-1-carboxylate] as the compound, how does the DC50 read?
**A.** The DC50 was < 2.5 nM.

**Q.** And the Dmax?
**A.** Its Dmax is > 75%.

**Q.** For `CC(C)[C@@H](C(=O)N1C[C@H](O)C[C@H]1C(=O)N[C@@H](C)c1ccc(C#N)cc1)c1cc(N2CCN(C(=O)N3CCC(O[C@H]4C[C@H](Oc5cc(N6C7CCC6CN(c6cc(-c8ccccc8O)nnc6N)C7)ccn5)C4)CC3)CC2)no1` [Compound 140, (2S,4R)-N-[(1S)-1-(4-cyanophenyl)ethyl]-4-hydroxy-1-[(2R)-3-methyl-2-[3-(4-{4-[(1r,3r)-3-[(4-{3-[3-amino-6-(2-hydroxyphenyl)pyridazin-4-yl]-3,8-diazabicyclo[3.2.1]octan-8-yl}pyridin-2-yl)oxy]cyclobutoxy]piperidine-1-carbonyl}piperazin-1-yl)-1,2-oxazol-5-yl]butanoyl]pyrrolidine-2-carboxamide], which DC50 is on record?
**A.** Its DC50 is < 2.5 nM.

**Q.** What about the Dmax of the same compound?
**A.** The Dmax was > 75%.

**Q.** Which DC50 does the source give for `Cc1ncsc1-c1ccc([C@H](C)NC(=O)[C@@H]2C[C@@H](O)CN2C(=O)[C@@H](c2cc(N3CCC(CN4CC5(CC(N6CCO[C@H](CN7C8CCC7CN(c7cc(-c9ccccc9O)nnc7N)C8)C6)C5)C4)CC3)no2)C(C)C)cc1` [Compound 141, (2S,4R)-1-[(2R)-2-{3-[4-({6-[(2S)-2-({3-[3-amino-6-(2-hydroxyphenyl)pyridazin-4-yl]-3,8-diazabicyclo[3.2.1]octan-8-yl}methyl)morpholin-4-yl]-2-azaspiro[3.3]heptan-2-yl}methyl)piperidin-1-yl]-1,2-oxazol-5-yl}-3-methylbutanoyl]-4-hydroxy-N-[(1S)-1-[4-(4-methyl-1,3-thiazol-5-yl)phenyl]ethyl]pyrrolidine-2-carboxamide] here?
**A.** The DC50 was < 2.5 nM.

**Q.** And the Dmax?
**A.** Its Dmax is > 75%.

**Q.** How did the DC50 turn out when `Cc1ncsc1-c1ccc([C@H](C)NC(=O)[C@@H]2C[C@@H](O)CN2C(=O)[C@@H](c2cc(N3CCC(CN4CCC5(CC4)CC(N4CCN(C)[C@@H](CN6C7CCC6CN(c6cc(-c8ccccc8O)nnc6N)C7)C4)C5)CC3)no2)C(C)C)cc1` [Compound 133, (2S,4R)-1-[(2R)-2-{3-[4-({2-[(3R)-3-({3-[3-amino-6-(2-hydroxyphenyl)pyridazin-4-yl]-3,8-diazabicyclo[3.2.1]octan-8-yl}methyl)-4-methylpiperazin-1-yl]-7-azaspiro[3.5]nonan-7-yl}methyl)piperidin-1-yl]-1,2-oxazol-5-yl}-3-methylbutanoyl]-4-hydroxy-N-[(1S)-1-[4-(4-methyl-1,3-thiazol-5-yl)phenyl]ethyl]pyrrolidine-2-carboxamide] was run?
**A.** The DC50 was < 2.5 nM.

**Q.** And the Dmax?
**A.** The Dmax was > 75%.

**Q.** How did the DC50 turn out when `CC(C)C(C(=O)N1C[C@H](O)C[C@H]1C(=O)N[C@@H](C)c1ccc(-c2ccnn2C)cc1)c1cc(OCC#Cc2ncc(O[C@H]3C[C@H](Oc4cc(N5CCN(c6cc(-c7ccccc7O)nnc6N)CC5)ccn4)C3)cn2)no1` (stereo partly drawn) [Compound 34, (2S,4R)-4-hydroxy-N-[(1S)-1-[4-(1-methyl-1H-pyrazol-5-yl)phenyl]ethyl]-1-(3-methyl-2-{3-[(3-{5-[(1r,3r)-3-[(4-{4-[3-amino-6-(2-hydroxyphenyl)pyridazin-4-yl]piperazin-1-yl}pyridin-2-yl)oxy]cyclobutoxy]pyrimidin-2-yl}prop-2-yn-1-yl)oxy]-1,2-oxazol-5-yl}butanoyl)pyrrolidine-2-carboxamide] was run?
**A.** The DC50 was < 2.5 nM.

**Q.** And the Dmax?
**A.** Its Dmax is > 75%.

**Q.** What does the source list for `Cc1ncsc1-c1ccc([C@H](C)NC(=O)[C@@H]2C[C@@H](O)CN2C(=O)[C@@H](c2cc(N3CCC(OC4CCN(C[C@H]5C[C@@H](N6CCO[C@@H](CN7C8CCC7CN(c7cc(-c9ccccc9O)nnc7N)C8)C6)C5)CC4)CC3)no2)C(C)C)cc1` [Compound 108, (2S,4R)-1-((2R)-2-(3-(4-((1-(((1S,3s)-3-((2R)-2-((3-(3-amino-6-(2-hydroxyphenyl)pyridazin-4-yl)-3,8-diazabicyclo[3.2.1]octan-8-yl)methyl)morpholino)cyclobutyl)methyl)piperidin-4-yl)oxy)piperidin-1-yl)isoxazol-5-yl)-3-methylbutanoyl)-4-hydroxy-N-((S)-1-(4-(4-methylthiazol-5-yl)phenyl)ethyl)pyrrolidine-2-carboxamide]?
**A.** DC50: < 2.5 nM; Dmax: > 75%

**Q.** For `Cc1ncsc1-c1ccc([C@H](C)NC(=O)[C@@H]2C[C@@H](O)CN2C(=O)[C@H](c2cc(N3C4CCC3CC(CN3CCC(O[C@H]5C[C@H](Oc6cc(N7C8CCC7CN(c7cc(-c9ccccc9O)nnc7N)C8)ccn6)C5)CC3)C4)no2)C(C)C)cc1` (stereo partly drawn) [Compound 18, (2S,4R)-4-hydroxy-N-[(1S)-1-[4-(4-methyl-1,3-thiazol-5-yl)phenyl]ethyl]-1-[(2S)-3-methyl-2-{3-[3-({4-[(1r*,3r*)-3-[(4-{3-[3-amino-6-(2-hydroxyphenyl)pyridazin-4-yl]-3,8-diazabicyclo[3.2.1]octan-8-yl}pyridin-2-yl)oxy]cyclobutoxy]piperidin-1-yl}methyl)-8-azabicyclo[3.2.1]octan-8-yl]-1,2-oxazol-5-yl}butanoyl]pyrrolidine-2-carboxamide], which DC50 is on record?
**A.** The DC50 was ≥ 30 nM.

**Q.** Which DC50 does the source give for `Cc1ncsc1-c1ccc([C@H](C)NC(=O)[C@@H]2C[C@@H](O)CN2C(=O)[C@@H](c2cc(N3CCC(OC(=O)N4CCC(Oc5cc(N6C7CCC6CN(c6cc(-c8ccccc8O)nnc6N)C7)ccn5)CC4)CC3)no2)C(C)C)cc1` [Compound 128, 1-(5-((R)-1-((2S,4R)-4-hydroxy-2-(((S)-1-(4-(4-methylthiazol-5-yl)phenyl)ethyl)carbamoyl)pyrrolidin-1-yl)-3-methyl-1-oxobutan-2-yl)isoxazol-3-yl)piperidin-4-yl 4-((4-(3-(3-amino-6-(2-hydroxyphenyl)pyridazin-4-yl)-3,8-diazabicyclo[3.2.1]octan-8-yl)pyridin-2-yl)oxy)piperidine-1-carboxylate] here?
**A.** Its DC50 is < 2.5 nM.

**Q.** And the Dmax?
**A.** Its Dmax is > 75%.

**Q.** Which DC50 does the source give for `CC(C)[C@@H](C(=O)N1C[C@H](O)C[C@H]1C(=O)N[C@@H](C)c1ccc(C#N)cc1)c1cc(N2CCC(CN3CC[C@H](Oc4cc(N5C6CCC5CN(c5cc(-c7ccccc7O)nnc5N)C6)ccn4)[C@H](F)C3)CC2)no1` [Compound 156, (2S,4R)-1-[(2R)-2-[3-(4-{[(3R,4S)-4-[(4-{3-[3-amino-6-(2-hydroxyphenyl)pyridazin-4-yl]-3,8-diazabicyclo[3.2.1]octan-8-yl}pyridin-2-yl)oxy]-3-fluoropiperidin-1-yl]methyl}piperidin-1-yl)-1,2-oxazol-5-yl]-3-methylbutanoyl]-N-[(1S)-1-(4-cyanophenyl)ethyl]-4-hydroxypyrrolidine-2-carboxamide] here?
**A.** The DC50 was < 2.5 nM.

**Q.** And the Dmax?
**A.** Its Dmax is > 75%.

**Q.** `Cc1ncsc1-c1ccc([C@H](C)NC(=O)[C@@H]2C[C@@H](O)CN2C(=O)[C@@H](c2cc(N3CCC(CN4CCC(O[C@H]5C[C@H](N6CCC([C@@H](C)c7cnn(-c8cc(-c9ccccc9O)nnc8N)c7)CC6)C5)CC4)CC3)no2)C(C)C)cc1` [Compound 74, (2S,4R)-4-hydroxy-N-[(1S)-1-[4-(4-methyl-1,3-thiazol-5-yl)phenyl]ethyl]-1-[(2R)-3-methyl-2-{3-[4-({4-[(1r,3r)-3-{4-[(1R)-1-{1-[3-amino-6-(2-hydroxyphenyl)pyridazin-4-yl]-1H-pyrazol-4-yl}ethyl]piperidin-- yl}cyclobutoxy]piperidin-1-yl}methyl)piperidin-1-yl]-1,2-oxazol-5-yl}butanoyl]pyrrolidine-2-carboxamide] was tested. Which DC50 did it give?
**A.** The DC50 was < 2.5 nM.

**Q.** And the Dmax?
**A.** Its Dmax is > 75%.

**Q.** What does the source list for `Cc1ncsc1-c1ccc([C@H](C)NC(=O)[C@@H]2C[C@@H](O)CN2C(=O)[C@@H](c2cc(N3CCC(CN4CCC5(CC4)CC(C#CC(C)n4cc(-c6cc(-c7ccccc7O)nnc6N)cn4)C5)CC3)no2)C(C)C)cc1` (stereo partly drawn) [Compound 36, (2S,4R)-1-[(2R)-2-[3-(4-{[2-(3-{4-[3-amino-6-(2-hydroxyphenyl)pyridazin-4-yl]-1H-pyrazol-1-yl}but-1-yn-1-yl)-7-azaspiro[3.5]nonan-7-yl]methyl}piperidin-1-yl)-1,2-oxazol-5-yl]-3-methylbutanoyl]-4-hydroxy-N-[(1S)-1-[4-(4-methyl-1,3-thiazol-5-yl)phenyl]ethyl]pyrrolidine-2-carboxamide]?
**A.** DC50: < 2.5 nM; Dmax: > 75%
